Experimental data reported in PubChem BioAssay AID248 (DTP/NCI, 2004).
Values joined by “and” are separate entries in the source; they are usually repeats but may differ in a detail not shown here. Identical values can stand only once. Inconclusive results and toxic doses are left out. No stated cut-off is given here; in the data, active means T/C of 150% or more; inactive means T/C below 125%.

Test system: L1210 leukemia ip in BDF1 mice, survival T/C
Experiment: NCI In Vivo Anticancer Drug Screen. Data for tumor model L1210 Leukemia (intraperitoneal) in B6D2F1 (BDF1) mice
Conditions: endpoint: mean survival time, higher = longer survival
In short: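 Each compound was tested against a transplantable tumor grown in mice. The endpoint was survival, with treated animals benchmarked against vehicle controls as a simple ratio.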

[1] = dose: 100.0 mg/kg/injection, schedule: Q04DX003 (ip), vehicle: saline with Tween-80
[2] = dose: 200.0 mg/kg/injection, schedule: Q04DX003 (ip), vehicle: saline with Tween-80
[3] = dose: 100.0 mg/kg/injection, schedule: Q01DX001 (ip), vehicle: carboxymethylcellulose (CMC)
[4] = dose: 400.0 mg/kg/injection, schedule: Q01DX001 (ip), vehicle: carboxymethylcellulose (CMC)
[5] = dose: 100.0 mg/kg/injection, schedule: Q04DX003 (ip), vehicle: Klucel (hydroxypropylcellulose) (HPC)
[6] = dose: 200.0 mg/kg/injection, schedule: Q04DX003 (ip), vehicle: Klucel (hydroxypropylcellulose) (HPC)
[7] = dose: 400.0 mg/kg/injection, schedule: Q04DX003 (ip), vehicle: Klucel (hydroxypropylcellulose) (HPC)
[8] = dose: 100.0 mg/kg/injection, schedule: Q01DX001 (ip), vehicle: Klucel (hydroxypropylcellulose) (HPC)

Measured: T/C

O=C1CSc2ccccc2N1
inactive: dose: 12.5 mg/kg/injection, schedule: Q01DX009 (ip), vehicle: saline with Tween-80 94 % of control | dose: 25.0 mg/kg/injection, schedule: Q01DX009 (ip), vehicle: saline with Tween-80 100 % of control | dose: 50.0 mg/kg/injection, schedule: Q01DX009 (ip), vehicle: saline with Tween-80 102 % of control | dose: 50.0 mg/kg/injection, schedule: Q04DX003 (ip), vehicle: saline with Tween-80 103 % of control | dose: 100.0 mg/kg/injection, schedule: Q04DX002 (ip), vehicle: Klucel (hydroxypropylcellulose) (HPC) 97 % of control | [1] 103 % of control | dose: 200.0 mg/kg/injection, schedule: Q04DX002 (ip), vehicle: Klucel (hydroxypropylcellulose) (HPC) 95 % of control | [2] 92 % of control | dose: 400.0 mg/kg/injection, schedule: Q04DX002 (ip), vehicle: Klucel (hydroxypropylcellulose) (HPC) 110 % of control

CCC[CH2][Ge]([CH2]CCC)[O][Ge]([CH2]CCC)[CH2]CCC
inactive: dose: 100.0 mg/kg/injection, schedule: Q04DX002 (ip), vehicle: saline with Tween-80 87 % of control

CCS(=O)(=O)c1ccc(NC(=O)Oc2cc(C)ccc2C(C)C)cc1
inactive: [3] 91 % of control | dose: 200.0 mg/kg/injection, schedule: Q01DX001 (ip), vehicle: carboxymethylcellulose (CMC) 96 % of control | [4] 94 % of control

CCCCCCCCCCCCOc1ccccc1C(=O)O
inactive: dose: 100.0 mg/kg/injection, schedule: Q01DX009 (ip), vehicle: saline sonified 98 % of control | [5] 97 % of control | dose: 200.0 mg/kg/injection, schedule: Q01DX009 (ip), vehicle: saline sonified 116 % of control | [6] 89 % of control | dose: 400.0 mg/kg/injection, schedule: Q01DX009 (ip), vehicle: saline sonified 108 % of control | [7] 99 % of control

CC(=O)On1nnc2c(Cl)c(Cl)c(Cl)c(Cl)c21
inactive: dose: 100.0 mg/kg/injection, schedule: Q04DX003 (ip), vehicle: saline 94 % of control | dose: 200.0 mg/kg/injection, schedule: Q04DX003 (ip), vehicle: saline 94 % of control | dose: 400.0 mg/kg/injection, schedule: Q04DX003 (ip), vehicle: saline 87 % of control

CN=C(NC)c1ccc(NC(=O)/C=C/C(=O)Nc2ccc(C(=NC)NC)cc2)cc1
inactive: dose: 12.5 mg/kg/injection, schedule: Q01DX Z (ip), vehicle: carboxymethylcellulose (CMC) 97 % of control | dose: 25.0 mg/kg/injection, schedule: Q01DX Z (ip), vehicle: carboxymethylcellulose (CMC) 91 % of control | dose: 50.0 mg/kg/injection, schedule: Q01DX Z (ip), vehicle: carboxymethylcellulose (CMC) 99 % of control

O=C(COc1ccc(Cl)c(Cl)c1)N(Cc1ccccc1)Cc1cccnc1
inactive: [8] 99 % of control | dose: 100.0 mg/kg/injection, schedule: Q01DX009 (ip), vehicle: Klucel (hydroxypropylcellulose) (HPC) 98 % of control | [5] 100 % of control | dose: 200.0 mg/kg/injection, schedule: Q01DX001 (ip), vehicle: Klucel (hydroxypropylcellulose) (HPC) 96 % of control | dose: 200.0 mg/kg/injection, schedule: Q01DX009 (ip), vehicle: Klucel (hydroxypropylcellulose) (HPC) 116 % of control | [6] 96 % of control | dose: 400.0 mg/kg/injection, schedule: Q01DX001 (ip), vehicle: Klucel (hydroxypropylcellulose) (HPC) 96 % of control | dose: 400.0 mg/kg/injection, schedule: Q01DX009 (ip), vehicle: Klucel (hydroxypropylcellulose) (HPC) 100 % of control | [7] 98 % of control

COc1ccc2c(ccc3nc(C)[nH]c(=O)c32)c1
inactive: [8] 91 % of control

CCCCCCCCCCCCCCCCCC(S(=O)(=O)CC)S(=O)(=O)CC
inactive: [5] 93 % of control | [6] 93 % of control | [7] 90 % of control

CCCCCCCCCOc1ccc2ccccc2c1
inactive: [1] 102 % of control | [2] 97 % of control | dose: 400.0 mg/kg/injection, schedule: Q04DX003 (ip), vehicle: saline with Tween-80 92 % of control

NCC1OC(n2ccc(=O)[nH]c2=O)CC1O (configuration not stated)
inactive: dose: 25.0 mg/kg/injection, schedule: Q04DX002 (ip), vehicle: saline 93 % of control | dose: 50.0 mg/kg/injection, schedule: Q04DX002 (ip), vehicle: saline 101 % of control | dose: 100.0 mg/kg/injection, schedule: Q04DX002 (ip), vehicle: saline 108 % of control

CC(=O)N(C)C1=C(Sc2ccc(Cl)cc2)C(=O)c2ccccc2C1=O
inactive: dose: 75.0 mg/kg/injection, schedule: Q01DX001 (ip), vehicle: carboxymethylcellulose (CMC) 91 % of control | dose: 150.0 mg/kg/injection, schedule: Q01DX001 (ip), vehicle: carboxymethylcellulose (CMC) 88 % of control

Cc1ccc(S(=O)(=O)OCCN(CCOS(=O)(=O)c2ccc(C)cc2)c2cccc(F)c2)cc1
inactive: dose: 50.0 mg/kg/injection, schedule: Q01DX001 (ip), vehicle: carboxymethylcellulose (CMC) 101 % of control and 114 % of control | dose: 90.0 mg/kg/injection, schedule: Q01DX001 (ip), vehicle: carboxymethylcellulose (CMC) 103 % of control and 122 % of control | [3] 103 % of control and 106 % of control | dose: 135.0 mg/kg/injection, schedule: Q01DX001 (ip), vehicle: carboxymethylcellulose (CMC) 106 % of control and 110 % of control | dose: 300.0 mg/kg/injection, schedule: Q01DX001 (ip), vehicle: carboxymethylcellulose (CMC) 115 % of control and 120 % of control | [4] 109 % of control and 116 % of control
